Results reported in US5952511A, “Indolin-2-one derivatives” (Chugai Seiyaku Kabushiki Kaisha, priority 1993, dated 1999).

Assays:
[1] = biological target: T1, gastrin receptors (guinea pig gastric glands) (Cavia porcellus, UniProt H0VZC5); assay: Gastrin Receptor Binding Test in Guinea Pig Gastric Glands (Test Example 1); parameters: species or system guinea pig (Hartley, male); details: inhibition of specific 125I-gastrin I human binding (22.5 pM), 25° C., 45 min
T1 construct: The gastric glands were isolated from the tissue with a pipette; from tissue; host or cells: isolated gastric glands from gastric mucosa of Hartley male guinea pigs
T1 sequence (H0VZC5 1-426): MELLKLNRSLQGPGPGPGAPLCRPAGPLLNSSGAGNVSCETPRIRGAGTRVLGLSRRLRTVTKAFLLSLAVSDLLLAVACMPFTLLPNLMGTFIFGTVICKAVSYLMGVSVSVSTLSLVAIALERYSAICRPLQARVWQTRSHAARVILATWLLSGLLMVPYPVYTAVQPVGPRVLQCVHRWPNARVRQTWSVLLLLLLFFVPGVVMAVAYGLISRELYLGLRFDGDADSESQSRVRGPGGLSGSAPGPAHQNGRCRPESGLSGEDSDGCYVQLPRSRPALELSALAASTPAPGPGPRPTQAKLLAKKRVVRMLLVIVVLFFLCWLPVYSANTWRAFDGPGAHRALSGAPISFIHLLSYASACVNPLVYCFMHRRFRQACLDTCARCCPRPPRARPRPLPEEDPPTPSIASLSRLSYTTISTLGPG
Procedure: Gastrin Receptor Binding Test in Guinea Pig Gastric Glands
Preparation of Gastric Glands:
Guinea pig gastric glands were prepared according to the method of Chang, et al., Biochem. Biophys. Res. Commun., 134, 895 (1986). The gastric mucosa of a Hartley male guinea pig was peeled off. After washing, the mucosa was minced with scissors in buffer A (Eagle's MEM containing 2 mM L-glutamine and 25 mM HEPES; pH 7.4). After washing, the minced tissue was incubated in buffer A containing 0.025% collagenase, 0.01% soy bean trypsin inhibitor, and 0.1% BSA at 37° C. for 60 minutes under 95% O2 and 5% CO2. The gastric glands were isolated from the tissue with a pipette, washed twice with buffer A, and filtered through a mesh. Then, the gastric glands were obtained by centrifugation.
Guinea pig gastric glands were resuspended in buffer B (Hank's solution containing 10 mM HEPES and 0.2% BSA; pH 7.4) (10 ml of buffer B per guinea pig).
To 200 μl of the suspension containing the resuspended isolated gastric glands were added 20 μl of ^125 I-gastrin I human (final concentration: 22.5 pM). Then, 10 μl of a test compound or a solvent (for total binding) or 10 μM Pentagastrin (for nonspecific binding), and buffer B was added there to make a total volume of 1 ml. The reaction mixture was incubated at 25° C. for 45 minutes and then centrifuged at 12000 g. The supernatant was removed by suction, and the radioactivity of the isolated gastric glands was measured with a gamma-counter.
The specific binding of gastrin to gastrin receptors was obtained from a difference between the total binding and the nonspecific binding. The IC50 of the test compound in inhibition of specific binding was calculated.

[2] = biological target: T2, CCK-B receptors (rat cerebral cortex) (Rattus norvegicus, UniProt P30553); assay: CCK-B Receptor Binding Test in Rat Cerebral Cortex (Test Example 3); parameters: species or system rat (Sprague-Dawley, male); details: inhibition of specific 125I-CCK-8 sulfated binding (15 pM), 25° C., 120 min
T2 construct: Cerebral cortex was minced in the same buffer, and homogenized with Polytron; from tissue; host or cells: cerebral cortex membrane fraction of Sprague-Dawley male rats
T2 sequence (P30553 1-452): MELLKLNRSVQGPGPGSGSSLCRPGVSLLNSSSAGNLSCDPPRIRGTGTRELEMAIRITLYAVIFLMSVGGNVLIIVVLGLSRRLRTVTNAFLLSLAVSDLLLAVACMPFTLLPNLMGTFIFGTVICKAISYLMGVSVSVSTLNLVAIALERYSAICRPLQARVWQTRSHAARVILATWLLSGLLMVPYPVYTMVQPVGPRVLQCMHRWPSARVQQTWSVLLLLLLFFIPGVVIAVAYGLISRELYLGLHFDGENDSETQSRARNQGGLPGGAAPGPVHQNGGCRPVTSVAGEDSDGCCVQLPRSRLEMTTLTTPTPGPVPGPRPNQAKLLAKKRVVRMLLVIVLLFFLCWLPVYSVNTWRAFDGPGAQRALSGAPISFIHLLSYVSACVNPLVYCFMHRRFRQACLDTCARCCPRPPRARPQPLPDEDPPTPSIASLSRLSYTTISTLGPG
Procedure: CCK-B Receptor Binding Test in Rat Cerebral Cortex
A rat cortical membrane fraction was prepared in accordance with the method of Chang, et al., Proc. Natl. Acad. Sci., U.S.A., 83, 4923 (1986). Sprague-Dawley male rats were sucrified and the brains were removed and immersed in a 50 mM Tris-HCl buffer (pH 7.4) under ice-cooling, and the cortex was dissected. Cerebral cortex was minced in the same buffer, and homogenized with Polytron. The homogenate was centrifuged at 2,500 g, and the supernatant was further centrifuged at 50,000 g. The pellet was resuspended in a reaction buffer solution (10 mM HEPES, 5 mM MgCl2, 1 mM EGTA, 130 mM NaCl; pH 6.5).
To 150 μl of the resulting rat cerebral cortex suspension were added 20 μl of ^125 I-CCK-8 sulfated (final concentration: 15 pM) and 10 μl of a test compound or a solvent (for total binding) or 1 μM CCK-8 sulfated (for nonspecific binding), and the reaction buffer solution was added there to make 1 ml. The reaction mixture was incubated at 25° C. for 120 minutes, followed by filtration through a GF/B filter (produced by Whatman). The radio-activity of the membrane fraction adsorbed onto the filter was measured with a gamma-counter.
The specific binding to CCK-B receptors was obtained from a difference between the total binding and the nonspecific binding. The IC50 of the test compound in inhibition of specific binding was calculated.

gastric acid secretion [3] = assay: Inhibitory Activity on Gastric Acid Secretion in Pylorus Ligated Rats (Test Example 2); format: in vivo, rat (Sprague-Dawley, male); details: Rattus norvegicus, intraduodenal, 10 mg/kg, i.d., 4 h
Procedure: Inhibitory Activity on Gastric Acid Secretion in Pyrolus Ligated Rats
Sprague-Dawley male rats weighing about 200 g were deprived of food for 24 hours while allowed water ad libitum. The abdomen was opened under anesthesia with ethyl ether, the pyrolus ligated, and the abdomen closed. The rats were deprived of food and water for 4 hours until they were surcrified with ethyl ether. The stomach was removed, and gastric juice was collected and measured. The gastric juice was centrifuged at 3000 rpm, and the supernatant was titrated up to pH 7.0 with 0.1N NaOH solution to obtain the acidity of the gastric juice. The amount of the gastric acid output was calculated by multiplying the gastric juice volume by the acidity, and the percent inhibition of acid secretion was obtained according to the following equation. A test compound, suspended in a 3% gum arabic solution, was administered intraduodenally at a dose of 2 ml/kg immediately after the pyrolus ligation.
Inhibition (%)=[(Average amount of gastric acid output in control group--Average amount of gastric acid output in test group)/Average amount of gastric acid secreted […]]×100

gastrin receptors = details: in words; cited from earlier work
gastric acid secretion [4] = details: in words; cited from earlier work
CCK-B receptors = details: in words; cited from earlier work

Row | SMILES | IC50 [1] [nM] | IC50 [2] [nM] | inhibition in vivo at 10 mg/kg (gastric acid secretion [3]) [%] | binding activity to gastrin receptors (gastrin receptors) | inhibitory activity on gastric acid secretion when administered in vivo (gastric acid secretion [4]) | binding activity to CCK-B receptors (CCK-B receptors)
1 | CCOC(CN1C(=O)C(CC(=O)Nc2ccc(C)cn2)(NC(=O)Nc2cccc(OC)c2)c2ccccc21)OCC (racemic) [Example 158, (RS)-1-(2,2-Diethoxyethyl)-3-(N'-(3-methoxyphenyl)ureido)-3-((5-methylpyrido-2-yl)aminocarbonylmethyl)indolin-2-one] | 1.4 | 0.56 | 66 | – | – | –
2 | CCOC(CN1C(=O)C(CC(=O)Nc2ccc(C)cc2)(NC(=O)Nc2ccc(C)cc2)c2ccccc21)OCC (single isomer, unassigned; (+)) [Example 174, (+)-1-(2,2-Diethoxyethyl)-3-(4-methylphenyl)aminocarbonylmethyl-3-(N'-(4-methylphenyl)ureido)indolin-2-one] | 0.54 | 0.42 | 70 | – | – | –
3 | CCOC(CN1C(=O)C(CC(=O)Nc2ccc(C)cn2)(NC(=O)Nc2ccc(C)cc2)c2ccccc21)OCC (single isomer, unassigned; (+)) [Example 179] | 1.6 | 0.14 | 63 | – | – | –
4 | CCOC(CN1C(=O)C(CC(=O)Nc2ccc(N(C)C)cc2)(NC(=O)Nc2ccc(C)cc2)c2ccccc21)OCC (single isomer, unassigned; (+)) [Example 180, (+)-1-(2,2-Diethoxyethyl)-3-((4-(N,N-dimethylamino)phenyl)aminocarbonylmethyl)-3-(N'-(4-methylphenyl)ureido)indolin-2-one] | 4.6 | 0.36 | 73 | – | – | –
5 | CCOC(CN1C(=O)C(CC(=O)Nc2ccc(OC)nc2)(NC(=O)Nc2ccc(C)cc2)c2ccccc21)OCC (single isomer, unassigned; (+)) [Example 181, (+)-1-(2,2-Diethoxyethyl)-3-((2-methoxypyrido-5-yl)aminocarbonylmethyl)-3-(N'-(4-methylphenyl)ureido)indolin-2-one] | 2.2 | 0.78 | 69 | – | – | –
6 | CCOC(CN1C(=O)C(CC(=O)Nc2ccc(C)cn2)(NC(=O)Nc2cccc(OC)c2)c2ccccc21)OCC (single isomer, unassigned; (+)) [Example 190, (+)-1-(2,2-Diethoxyethyl)-3-(N'-(3-methoxyphenyl)ureido)-3-((5-methylpyrido-2-yl)aminocarbonylmethyl)indolin-2-one] | 0.68 | 0.1 | 70 | – | – | –
7 | CCOC(CN1C(=O)C(CC(=O)Nc2ccc(N(C)C)cc2)(NC(=O)Nc2cccc(OC)c2)c2ccccc21)OCC (single isomer, unassigned; (+)) [Example 191] | 5.5 | 0.45 | 78 | – | – | –
8 | Cc1cccc(NC(=O)N[C@@H]2N=C(c3ccccc3)c3ccccc3N(C)C2=O)c1 [L-365,260] | – | – | – | high binding activity to gastrin receptors | do not exert powerful inhibitory activity on gastric acid secretion | –
9 | CCCN(CCC)C(=O)C(CCC(=O)O)NC(=O)c1ccccc1 (stereo not shown) [Proglumide] | – | – | – | very weak | – | very weak
